The numbers were not newly measured in patent US20100137844A1, “Delivery devices for modulating inflammation” (Searete LLC, a limited liability corporation of the State …, priority 2008, published 2010), which cites them from elsewhere.

Data set [1] has as its target Fyn (Homo sapiens, UniProt P06241). As to conditions: at nanomolar concentrations.
For data set [2] the following is noted: 400 mg infused over one hour, single agent.
Data set [3] relates to proteasomal activity in cultured breast cancer cells. As to conditions: via copper binding.
Data set [4] has as its system aldehyde dehydrogenase.
The test system of data set [5] is mice.

Fyn, sequence (P06241 whole entry, the tested form may be a part): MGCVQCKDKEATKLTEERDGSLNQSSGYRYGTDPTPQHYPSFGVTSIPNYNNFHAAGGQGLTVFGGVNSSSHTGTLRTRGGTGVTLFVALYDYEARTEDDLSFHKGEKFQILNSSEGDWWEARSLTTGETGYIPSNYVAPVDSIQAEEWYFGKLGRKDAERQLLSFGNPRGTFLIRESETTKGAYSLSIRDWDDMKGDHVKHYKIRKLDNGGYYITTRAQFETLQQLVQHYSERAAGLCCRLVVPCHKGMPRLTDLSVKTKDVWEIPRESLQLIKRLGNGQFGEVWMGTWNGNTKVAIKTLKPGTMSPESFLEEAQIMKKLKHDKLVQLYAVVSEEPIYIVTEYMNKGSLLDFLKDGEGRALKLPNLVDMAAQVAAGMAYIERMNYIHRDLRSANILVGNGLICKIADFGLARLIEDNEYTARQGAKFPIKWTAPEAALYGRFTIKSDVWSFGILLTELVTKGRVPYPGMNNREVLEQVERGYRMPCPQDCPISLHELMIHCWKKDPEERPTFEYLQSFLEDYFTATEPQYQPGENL

Consider `Cc1nc(Nc2ncc(C(=O)Nc3c(C)cccc3Cl)s2)cc(N2CCN(CCO)CC2)n1.O` [dasatinib, N-(2-chloro-6-methylphenyl)-2-[[6-[4-(2-hydroxyethyl)-1-piperazinyl]-2-methyl-4-pyrimidinyl]amino]-5-thiazolecarboxamide, monohydrate], for which, in data set [1], the “inhibition of Fyn” value is given as “inhibits”. In the case of `CCN(CC)CCCC(C)Nc1ccnc2cc(Cl)ccc12.O=P(O)(O)O.O=P(O)(O)O` (centres unmarked) [chloroquine phosphate, 7-chloro-4-[[4-(diethylamino)-1-methylbutyl]amino]quinoline phosphate (1:2)], the “tolerability of intravenous infusion” value in data set [2] is reported as “without complication”.

With `CCN(CC)C(=S)SSC(=S)N(CC)CC` [disulfiram, 1-(diethylthiocarbamoyldisulfanyl)-N,N-diethyl-methanethioamide], the proteasomal activity entry in data set [3] is on record as “inhibits proteasomal activity”. Besides, the “inhibition of aldehyde dehydrogenase” value in data set [4] was “inhibits aldehyde dehydrogenase without toxicity”. Consider `Cl.Cl.Nc1ccccc1Oc1ccc2c(N)nsc2c1` [Example M62812, 3-amino-6-(2-aminophenoxy)-1,2-benzisothiazole dihydrochloride], for which the “prevention of lethal septic shock” value in data set [5] was “prevents lethal septic shock in mice”.
